According to patent US20140031217A1, “HERBICIDAL COMPOSITIONS COMPRISING 4-AMINO-3-CHLORO-5-FLUORO-6-(4-CHLORO-2-FLUORO-3-METHOXYPHENYL)PYRIDINE-2-CARBOXYLIC ACID OR A DERIVATIVE THEREOF AND AUXIN TRANSPORT INHIBITORS” (DOW AGROSCIENCES LLC, priority 2012, published 2014):

Legend:
ECHOR = assay: In-water applied (paddy) greenhouse weed control, ECHOR; assay type: in vivo, Echinochloa oryzoides (Ard.) Fritsch
Protocol: (§1) Weed seeds or nutlets of the desired test plant species were planted in puddled soil (mud) prepared by mixing a shredded, non-sterilized mineral soil (50.5 percent silt, 25.5 percent clay, and 24 percent sand, with a pH of about 7.6 and an organic matter content of about 2.9 percent) and water at a 1:1 volumetric ratio. The prepared mud was dispensed in 365 mL aliquots into 16-ounce (oz.) non-perforated plastic pots with a surface area of 86.59 square centimeters (cm^2) leaving a headspace of 3 centimeters (cm) in each pot. Mud was allowed to dry overnight prior to planting or transplanting. Rice seeds were planted in Sun Gro MetroMix® 306 planting mixture, which typically has a pH of 6.0 to 6.8 and an organic matter content of about 30 percent, in plastic plug trays. Seedlings at the second or third leaf stage of growth were transplanted into 840 mL of mud contained in 32-oz. non-perforated plastic pots with a surface area of 86.59 cm^2 4 days prior to herbicide application. The paddy was created by filling the headspace of the pots with 2.5 to 3 cm of water. When required to ensure good germination and healthy plants, a fungicide treatment and/or other chemical or physical treatment was applied. The plants were grown for 4-22 days in a greenhouse with an approximate 14 h photoperiod which was maintained at about 29′C during the day and 26° C. during the night. Nutrients were added as Osmocote® (19:6:12, N:P:K+minor nutrients) at 2 g per 16-oz. pot and 4 g per 960-mL 32-oz. pot. Water was added on a regular basis to maintain the paddy flood, and supplemental lighting was provided with overhead metal halide 1000-Watt lamps as necessary. The plants were employed for testing when they reached the second or third true leaf stage.
(§2) Treatments consisted of the acid or esters of 4-amino-3-chloro-5-fluoro-6-(4-chloro-2-fluoro-3-methoxy-phenyl)pyridine-2-carboxylic acid (compound A) each formulated as an SC and various herbicidal components alone and in combination. Forms of compound A were applied on an acid equivalent basis.
(§3) Other herbicidal components were applied on an active ingredient basis and included auxin transport inhibiting (ATI) herbicides chlorflurenol-methyl (technical material), chlorflurenol (technical material), diflufenzopyr (technical material), dilfufenzopyr sodium (technical material), flurenol-methyl (technical material,) and naptalam (technical material).
(§4) Treatment requirements for each compound or herbicidal component were calculated based upon the rates being tested, the concentration of active ingredient or acid equivalent in the formulation, an application volume of 2 mL per component per pot, and an application area of 86.59 cm^2 per pot.
(§5) For formulated compounds, a measured amount was placed in an individual 100 or 200 mL glass vial and was dissolved in a volume of 1.25% (v/v) Agri-Dex® crop oil concentrate to obtain application solutions.
(§6) For technical grade compounds, a weighed amount was placed in an individual 100 to 200 mL glass vial and was dissolved in a volume of acetone to obtain concentrated stock solutions. […] The concentrated stock solutions obtained were diluted with an equivalent volume of an aqueous mixture containing 2.5% (v/v) crop oil concentrate so that the final application solutions contained 1.25% (v/v) crop oil concentrate.
(§7) Applications were made by injecting with a pipetter appropriate amounts of the application solutions, individually and sequentially, into the aqueous layer of the paddy. Control plants were treated in the same manner with the solvent blank. Applications were made so that all treated plant material received the same concentrations of acetone and crop oil concentrate.
(§8) The treated plants and control plants were placed in a greenhouse as described above and water was added as needed to maintain a paddy flood. […]

SCPMA = assay: In-water applied (paddy) greenhouse weed control, SCPMA; assay type: in vivo; details: 22 DAA
Protocol: as §1, §2, §3, §4, §5, §6, §7, §8

ECHCG = assay: In-water applied (paddy) greenhouse weed control, ECHCG; assay type: in vivo, Echinochloa crusgalli (L.) Beauv.
Protocol: as §1, §2, §3, §4, §5, §6, §7, §8

CYPRO = assay: In-water applied (paddy) greenhouse weed control, CYPRO; assay type: in vivo, Cyperus rotundus L.; details: 19 DAA
Protocol: as §1, §2, §3, §4, §5, §6, §7, §8

FIMMI = assay: In-water applied (paddy) greenhouse weed control, FIMMI; assay type: in vivo, Fimbristylis miliacea (L.) Vahl; details: 19 DAA
Protocol: as §1, §2, §3, §4, §5, §6, §7, §8

ECHCO = assay: Postemergence foliar-applied greenhouse weed control, ECHCO; assay type: in vivo, Echinochloa colona (L.) Link; details: 21 DAA
From the text: (§9) Seeds or nutlets of the desired test plant species were planted in a soil matrix prepared by mixing a loam or sandy loam soil (e.g., 28.6 percent silt, 18.8 percent clay, and 52.6 percent sand, with a pH of about 5.8 and an organic matter content of about 1.8 percent) and calcareous grit in an 80 to 20 ratio. The soil matrix was contained in plastic pots with a volume of 1 quart and a surface area of 83.6 square centimeters (cm^2). When required to ensure good germination and healthy plants, a fungicide treatment and/or other chemical or physical treatment was applied. The plants were grown for 8-22 days in a greenhouse with an approximate 14 h photoperiod which was maintained at about 29° C. during the day and 26° C. during the night. Nutrients (Peters Excel® 15-5-15 5-Ca 2-Mg and iron chelate) were applied in the irrigation solution as needed and water was added on a regular basis. Supplemental lighting was provided with overhead metal halide 1000-Watt lamps as necessary. The plants were employed for testing when they reached the first through fourth true leaf stage.
(§10) Treatments consisted of the acid or esters of 4-amino-3-chloro-5-fluoro-6-(4-chloro-2-fluoro-3-methoxy-phenyl) pyridine-2-carboxylic acid (Compound A), each formulated as an SC (suspension concentrate), and various herbicidal components alone and in combination. Forms of compound A were applied on an acid equivalent basis.
(§11) Other herbicidal components were applied on an active ingredient basis and included auxin transport inhibiting (ATI) herbicides chlorflurenol (technical material), chlorflurenol-methyl (technical material), diflufenzopyr (technical material), diflufenzopyr sodium (technical material), flurenol-methyl (technical material) and naptalam (technical material).
(§12) Treatment requirements were calculated based upon the rates being tested, the concentration of active ingredient or acid equivalent in the formulation, and a 12 mL application volume at a rate of 187 L/ha.
(§13) For treatments comprised of formulated and technical compounds, weighed amounts of the technical materials were placed individually in 25 mL glass vials and dissolved in a volume of 97:3 v/v acetone/DMSO to obtain 12× stock solutions, and measured amounts of the formulated compounds were placed individually in 25 mL glass vials and diluted in a volume of 1.5% (v/v) crop oil concentrate or water to obtain 12× stock solutions. […] Application solutions were prepared by adding an appropriate amount of each stock solution (e.g., 1 mL) and diluted to the appropriate final concentrations with the addition of an appropriate amount of an aqueous mixture of 1.5% (v/v) crop oil concentrate so that the final spray solutions contained 1.25% (v/v) crop oil concentrate. When required, additional water and/or 97:3 v/v acetone/DMSO was added to individual application solutions so that the final acetone and DMSO concentrations of the application solutions being compared were 8.1% and 0.25%, respectively.
(§14) All stock solutions and applications solutions were visually inspected for compound compatibility prior to application. Spray solutions were applied to the plant material with an overhead Mandel track sprayer equipped with an 8002E nozzle calibrated to deliver 187 L/ha over an application area of 0.503 m^2 at a spray height of 18 to 20 inches (46 to 50 cm) above average plant canopy height. Control plants were sprayed in the same manner with the solvent blank.
(§15) The treated plants and control plants were placed in a greenhouse as described above and watered by sub-irrigation to prevent wash-off of the test compounds. After approximately 3 weeks, the condition of the test plants as compared with that of the untreated plants was determined visually and scored on a scale of 0 to 100 percent where 0 corresponds to no injury or growth inhibition and 100 corresponds to complete kill. […]

DIGSA = assay: Postemergence foliar-applied greenhouse weed control, DIGSA; assay type: in vivo, Digitaria sanguinalis (L.) Scop.; details: 21 DAA
From the text: as §9, §10, §11, §12, §13, §14, §15

IPOHE = assay: Postemergence foliar-applied greenhouse weed control, IPOHE; assay type: in vivo, Ipomoea hederacea Jacq.
From the text: as §9, §10, §11, §12, §13, §14, §15

LEFCH = assay: Postemergence foliar-applied greenhouse weed control, LEFCH; assay type: in vivo, Leptochloa chinensis (L.) Nees
From the text: as §9, §10, §11, §12, §13, §14, §15

BRAPP = assay: Postemergence foliar-applied greenhouse weed control, BRAPP; assay type: in vivo, Brachiaria platyphylla (Griseb.) Nash
From the text: as §9, §10, §11, §12, §13, §14, §15

CYPIR = assay: Postemergence foliar-applied greenhouse weed control, CYPIR; assay type: in vivo, Cyperus iria L.; details: 22 DAA
From the text: as §9, §10, §11, §12, §13, §14, §15

O=C(O)C1(O)c2ccccc2-c2ccc(Cl)cc21 (centres unmarked) [Chlorflurenol, reference compound]
Visual Weed Control (%) Obs (ECHOR; 22 DAA, 550 gai/ha): 30%
Visual Weed Control (%) Obs (SCPMA; 275 gai/ha): 45%
Visual Weed Control (%) Obs (SCPMA; 550 gai/ha): 60%
Visual Weed Control (%) Obs (ECHCG; 22 DAA, 275 gai/ha): 10%

C/C(=N\NC(=O)Nc1cc(F)cc(F)c1)c1ncccc1C(=O)O [Diflufenzopyr sodium]
Visual Weed Control (%) Obs (CYPRO; 17.5 gai/ha): 0%
Visual Weed Control (%) Obs (CYPRO; 35 gai/ha): 0%
Visual Weed Control (%) Obs (CYPRO; 70 gai/ha): 10%
Visual Weed Control (%) Obs (FIMMI; 17.5 gai/ha): 50%
Visual Weed Control (%) Obs (FIMMI; 35 gai/ha): 55%
Visual Weed Control (%) Obs (FIMMI; 70 gai/ha): 60%
Visual Weed Control (%) Obs (ECHCG; 19 DAA, 17.5 gai/ha): 20%
Visual Weed Control (%) Obs (ECHCG; 19 DAA, 35 gai/ha): 50%
Visual Weed Control (%) Obs (ECHCG; 19 DAA, 70 gai/ha): 20%

C/C(=N\NC(=O)Nc1cc(F)cc(F)c1)c1ncccc1C(=O)O [Diflufenzopyr, 2-{(E)-1-[4-(3,5-difluorophenyl)-semicarbazono]-ethyl}nicotinic acid]
Visual Weed Control (%) Obs (ECHCO; 8.75 gai/ha): 30%
Visual Weed Control (%) Obs (ECHCO; 17.5 gai/ha): 30%
Visual Weed Control (%) Obs (ECHCO; 35 gai/ha): 40%
Visual Weed Control (%) Obs (DIGSA; 17.5 gai/ha): 10%
Visual Weed Control (%) Obs (DIGSA; 35 gai/ha): 20%
Visual Weed Control (%) Obs (IPOHE; 21 DAA, 8.75 gai/ha): 75%
Visual Weed Control (%) Obs (IPOHE; 21 DAA, 17.5 gai/ha): 70%
Visual Weed Control (%) Obs (LEFCH; 21 DAA, 8.75 gai/ha): 0%
Visual Weed Control (%) Obs (LEFCH; 21 DAA, 17.5 gai/ha): 10%
Visual Weed Control (%) Obs (BRAPP; 21 DAA, 8.75 gai/ha): 0%
Visual Weed Control (%) Obs (BRAPP; 21 DAA, 17.5 gai/ha): 40%
Visual Weed Control (%) Obs (BRAPP; 21 DAA, 35 gai/ha): 80%

COC(=O)C1(O)c2ccccc2-c2ccccc21 [Flurenol-methyl]
Visual Weed Control (%) Obs (CYPRO; 68.75 gai/ha): 0%
Visual Weed Control (%) Obs (CYPRO; 137.5 gai/ha): 0%
Visual Weed Control (%) Obs (CYPIR; 68.75 gai/ha): 0%
Visual Weed Control (%) Obs (CYPIR; 137.5 gai/ha): 0%
Visual Weed Control (%) Obs (CYPIR; 275 gai/ha): 60%
Visual Weed Control (%) Obs (FIMMI; 68.75 gai/ha): 0%
Visual Weed Control (%) Obs (FIMMI; 137.5 gai/ha): 0%
Visual Weed Control (%) Obs (FIMMI; 275 gai/ha): 20%
Visual Weed Control (%) Obs (ECHCG; 19 DAA, 68.75 gai/ha): 0%
Visual Weed Control (%) Obs (ECHCG; 19 DAA, 137.5 gai/ha): 0%
Visual Weed Control (%) Obs (ECHCG; 19 DAA, 275 gai/ha): 0%
Visual Weed Control (%) Obs (BRAPP; 22 DAA, 68.75 gai/ha): 0%
Visual Weed Control (%) Obs (BRAPP; 22 DAA, 137.5 gai/ha): 0%
Visual Weed Control (%) Obs (BRAPP; 22 DAA, 275 gai/ha): 30%

O=C(O)c1ccccc1C(=O)Nc1cccc2ccccc12 [Naptalam, 2-[(1-naphthalenylamino)carbonyl]benzoic acid, reference compound]
Visual Weed Control (%) Obs (ECHOR; 19 DAA, 330 gai/ha): 20%
Visual Weed Control (%) Obs (ECHOR; 19 DAA, 660 gai/ha): 25%
Visual Weed Control (%) Obs (ECHOR; 19 DAA, 1320 gai/ha): 30%
Visual Weed Control (%) Obs (CYPRO; 330 gai/ha): 0%
Visual Weed Control (%) Obs (CYPRO; 1320 gai/ha): 50%
Visual Weed Control (%) Obs (FIMMI; 330 gai/ha): 50%
Visual Weed Control (%) Obs (IPOHE; 22 DAA, 60 gai/ha): 15%
Visual Weed Control (%) Obs (IPOHE; 22 DAA, 120 gai/ha): 15%
Visual Weed Control (%) Obs (ECHCG; 19 DAA, 330 gai/ha): 20%
Visual Weed Control (%) Obs (LEFCH; 22 DAA, 60 gai/ha): 15%
Visual Weed Control (%) Obs (LEFCH; 22 DAA, 120 gai/ha): 15%
Visual Weed Control (%) Obs (BRAPP; 22 DAA, 30 gai/ha): 0%
Visual Weed Control (%) Obs (BRAPP; 22 DAA, 60 gai/ha): 0%
Visual Weed Control (%) Obs (BRAPP; 22 DAA, 120 gai/ha): 0%
